From US11739098B2 (BRISTOL-MYERS SQUIBB COMPANY, priority 2017, dated 2023)

Key:
Format in all cases: cell-based
[1] = biological target: T1, human TLR7 (Homo sapiens, UniProt Q9NYK1); assay: TLR7 inhibition reporter assay (HEK-Blue cells, SEAP reporter, gardiquimod stimulation); conditions: HEK-Blue cells overexpressing human TLR7, SEAP reporter, gardiquimod 7.5 μM
T1 construct: host or cells: HEK-Blue cells (HEK293-derived reporter line)
T1 sequence (Q9NYK1 27-1049): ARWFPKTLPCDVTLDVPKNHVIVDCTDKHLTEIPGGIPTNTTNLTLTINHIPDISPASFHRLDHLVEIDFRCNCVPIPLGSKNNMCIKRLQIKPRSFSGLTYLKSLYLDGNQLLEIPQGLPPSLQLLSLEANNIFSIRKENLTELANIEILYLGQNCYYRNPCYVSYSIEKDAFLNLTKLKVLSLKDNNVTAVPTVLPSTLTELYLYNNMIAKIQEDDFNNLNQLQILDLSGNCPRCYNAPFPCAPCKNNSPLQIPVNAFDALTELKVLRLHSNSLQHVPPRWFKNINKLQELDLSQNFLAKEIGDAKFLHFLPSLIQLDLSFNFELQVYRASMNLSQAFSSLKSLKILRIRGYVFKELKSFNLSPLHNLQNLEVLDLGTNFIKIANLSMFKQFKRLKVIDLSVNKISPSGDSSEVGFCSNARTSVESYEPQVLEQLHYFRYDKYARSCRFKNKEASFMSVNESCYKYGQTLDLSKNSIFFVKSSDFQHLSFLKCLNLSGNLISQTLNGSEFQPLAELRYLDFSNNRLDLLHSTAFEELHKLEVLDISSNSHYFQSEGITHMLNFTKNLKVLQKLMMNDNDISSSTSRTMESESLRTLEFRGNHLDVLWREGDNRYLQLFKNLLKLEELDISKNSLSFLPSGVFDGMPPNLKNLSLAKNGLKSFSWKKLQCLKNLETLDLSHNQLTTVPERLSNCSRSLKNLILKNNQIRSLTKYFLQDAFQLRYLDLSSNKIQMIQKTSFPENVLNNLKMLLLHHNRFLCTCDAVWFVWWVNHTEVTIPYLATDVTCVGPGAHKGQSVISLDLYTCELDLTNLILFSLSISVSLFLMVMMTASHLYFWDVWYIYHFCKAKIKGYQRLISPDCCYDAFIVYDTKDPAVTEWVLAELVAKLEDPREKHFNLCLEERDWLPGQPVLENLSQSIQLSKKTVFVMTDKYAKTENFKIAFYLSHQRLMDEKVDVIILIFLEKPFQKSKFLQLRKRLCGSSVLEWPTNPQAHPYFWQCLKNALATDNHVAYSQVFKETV
Procedure, shortened: (§1)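 Cells seeded per well (15000 TLR7, 20,000 TLR8, 25,000 TLR9); compound added over 0.05 nM–50 μM for 30 min at room temperature; agonist added (TLR7 gardiquimod 7.5 μM, TLR8 R848 15.9 μM, TLR9 ODN2006 5 nM); 22 h at 37 °C; SEAP measured; percent inhibition calculated.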

[2] = biological target: T2, human TLR8 (Homo sapiens, UniProt Q9NR97); assay: TLR8 inhibition reporter assay (HEK-Blue cells, SEAP reporter, R848 stimulation); conditions: HEK-Blue cells overexpressing human TLR8, SEAP reporter, R848 15.9 μM
T2 construct: host or cells: HEK-Blue cells (HEK293-derived reporter line)
T2 sequence (Q9NR97 27-1041): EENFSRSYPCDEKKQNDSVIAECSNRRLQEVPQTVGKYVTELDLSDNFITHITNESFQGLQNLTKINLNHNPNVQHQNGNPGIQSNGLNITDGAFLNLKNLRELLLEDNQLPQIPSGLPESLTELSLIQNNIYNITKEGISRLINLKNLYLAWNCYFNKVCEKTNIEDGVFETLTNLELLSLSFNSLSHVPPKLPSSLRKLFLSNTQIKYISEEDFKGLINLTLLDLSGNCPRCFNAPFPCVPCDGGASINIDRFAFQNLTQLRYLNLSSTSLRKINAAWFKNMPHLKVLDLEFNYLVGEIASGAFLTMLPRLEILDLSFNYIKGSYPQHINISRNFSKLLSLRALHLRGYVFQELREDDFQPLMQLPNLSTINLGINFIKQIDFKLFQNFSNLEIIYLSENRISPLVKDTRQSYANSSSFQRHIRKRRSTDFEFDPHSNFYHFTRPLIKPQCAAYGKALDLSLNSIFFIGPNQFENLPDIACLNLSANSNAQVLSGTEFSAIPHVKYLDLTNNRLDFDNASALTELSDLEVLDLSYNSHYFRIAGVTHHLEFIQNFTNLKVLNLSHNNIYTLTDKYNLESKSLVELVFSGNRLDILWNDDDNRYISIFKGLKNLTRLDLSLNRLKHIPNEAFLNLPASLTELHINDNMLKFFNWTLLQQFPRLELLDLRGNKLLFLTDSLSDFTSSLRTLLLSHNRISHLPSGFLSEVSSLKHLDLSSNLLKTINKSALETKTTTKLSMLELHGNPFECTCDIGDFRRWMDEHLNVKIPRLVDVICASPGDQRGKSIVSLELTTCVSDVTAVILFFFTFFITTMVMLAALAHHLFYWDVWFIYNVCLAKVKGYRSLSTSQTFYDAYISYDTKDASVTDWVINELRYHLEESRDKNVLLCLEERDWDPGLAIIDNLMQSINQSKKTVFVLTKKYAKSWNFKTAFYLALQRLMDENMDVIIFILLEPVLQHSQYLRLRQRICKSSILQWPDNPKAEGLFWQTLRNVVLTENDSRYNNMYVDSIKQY
Procedure, shortened: as §1

[3] = biological target: T3, human TLR9 (Homo sapiens, UniProt Q9NR96); assay: TLR9 inhibition reporter assay (HEK-Blue cells, SEAP reporter, ODN2006 stimulation); conditions: HEK-Blue cells overexpressing human TLR9, SEAP reporter, ODN2006 5 nM
T3 construct: host or cells: HEK-Blue cells (HEK293-derived reporter line)
T3 sequence (Q9NR96 26-1032): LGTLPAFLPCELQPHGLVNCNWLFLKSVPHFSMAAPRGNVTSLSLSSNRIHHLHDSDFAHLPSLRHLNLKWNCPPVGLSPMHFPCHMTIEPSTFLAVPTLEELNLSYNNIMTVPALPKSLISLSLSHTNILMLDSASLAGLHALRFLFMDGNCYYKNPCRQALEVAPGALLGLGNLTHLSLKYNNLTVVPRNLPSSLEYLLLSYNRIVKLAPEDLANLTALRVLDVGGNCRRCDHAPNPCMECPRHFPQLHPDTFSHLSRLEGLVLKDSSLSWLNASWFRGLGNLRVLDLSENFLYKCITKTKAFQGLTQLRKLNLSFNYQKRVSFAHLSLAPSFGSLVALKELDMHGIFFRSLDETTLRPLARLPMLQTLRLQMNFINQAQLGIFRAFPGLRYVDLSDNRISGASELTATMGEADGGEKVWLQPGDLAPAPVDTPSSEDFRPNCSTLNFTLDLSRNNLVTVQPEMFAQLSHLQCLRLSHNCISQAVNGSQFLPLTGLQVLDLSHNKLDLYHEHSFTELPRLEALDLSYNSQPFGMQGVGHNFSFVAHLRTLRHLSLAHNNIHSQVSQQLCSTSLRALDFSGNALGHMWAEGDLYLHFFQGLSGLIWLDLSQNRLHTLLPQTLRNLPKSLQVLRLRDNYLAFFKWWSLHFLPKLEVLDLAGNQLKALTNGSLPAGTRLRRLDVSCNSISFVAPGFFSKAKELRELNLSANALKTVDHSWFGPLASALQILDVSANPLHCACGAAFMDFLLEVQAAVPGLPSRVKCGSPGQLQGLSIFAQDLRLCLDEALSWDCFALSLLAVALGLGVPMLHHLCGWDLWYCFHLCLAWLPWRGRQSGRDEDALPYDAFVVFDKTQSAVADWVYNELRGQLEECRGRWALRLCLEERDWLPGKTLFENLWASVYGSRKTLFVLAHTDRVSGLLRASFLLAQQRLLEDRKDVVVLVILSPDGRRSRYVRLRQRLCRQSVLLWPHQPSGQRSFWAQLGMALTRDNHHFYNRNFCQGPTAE
Procedure, shortened: as §1

Row | SMILES | IC50 [1] [nM] | IC50 [2] [nM] | IC50 [3] [nM]
1 | Cc1cc2nnnn2cc1-c1[nH]c2ccc(C3CCN(C(=O)CN(C)C)CC3)cc2c1C(C)C [Example 486, 2-(dimethylamino)-1-(4-(3-isopropyl-2-(7-methyltetrazolo[1,5-a]pyridin-6-yl)-1H-indol-5-yl)piperidin-1-yl)ethan-1-one] | < 100 | 100 to 1000 | 1000 to 50000
2 | CC(C)c1c(-c2ccnc3[nH]ncc23)[nH]c2ccc(C3CCN(Cc4ccc(N5CCOCC5)cc4)CC3)cc12 [Example 912, 4-(4-((4-(3-isopropyl-2-(1H-pyrazolo[3,4-b]pyridin-4-yl)-1H-indol-5-yl)piperidin-1-yl)methyl)phenyl)morpholine] | < 100 | < 100 | 100 to 1000
3 | COc1cc(-c2[nH]c3ccc(C4CCN(CC(=O)N(C)C)CC4)cc3c2C(C)C)cc2nc(C)nn12 [Example 348, 2-(4-(3-isopropyl-2-(5-methoxy-2-methyl-[1,2,4]triazolo[1,5-a]pyridin-7-yl)-1H-indol-5-yl)piperidin-1-yl)-N,N-dimethylacetamide] | < 100 | < 100 | 1000 to 50000
4 | Cc1cc(-c2[nH]c3ccc(C4CCN(C(=O)CN(C)C)CC4)cc3c2C(C)C)cc2ccnn12 [Example 570, 2-(dimethylamino)-1-(4-(3-isopropyl-2-(7-methylpyrazolo[1,5-a]pyridin-5-yl)-1H-indol-5-yl)piperidin-1-yl)ethan-1-one] | < 100 | < 100 | 1000 to 50000
5 | CCOc1cc(-c2[nH]c3ccc(C4CCN(C(=O)CN(C)C)CC4)cc3c2C(C)C)cc2nc(C)nn12 [Example 497, 2-(dimethylamino)-1-(4-(2-(5-ethoxy-2-methyl-[1,2,4]triazolo[1,5-a]pyridin-7-yl)-3-isopropyl-1H-indol-5-yl)piperidin-1-yl)ethan-1-one] | < 100 | < 100 | 1000 to 50000
6 | CCOc1cc(-c2[nH]c3ccc(C4CCN(CC(=O)NC)CC4)cc3c2C(C)C)cc2ncnn12 [Example 351, 2-(4-(2-(5-ethoxy-[1,2,4]triazolo[1,5-a]pyridin-7-yl)-3-isopropyl-1H-indol-5-yl)piperidin-1-yl)-N-methylacetamide] | < 100 | < 100 | 1000 to 50000
7 | Cc1cc(-c2[nH]c3ccc(C4CCN(C(=O)CN(C)C)CC4)cc3c2C(C)C)cc2cccnc12 [Example 529, 2-(dimethylamino)-1-(4-(3-isopropyl-2-(8-methylquinolin-6-yl)-1H-indol-5-yl)piperidin-1-yl) ethan-1-one] | < 100 | < 100 | 1000 to 50000
8 | Cc1cnc2ccc(-c3[nH]c4ccc(C5CCNCC5)cc4c3C(C)C)cn12 [Example 114, 6-(3-isopropyl-5-(piperidin-4-yl)-1H-indol-2-yl)-3-methylimidazo[1,2-a]pyridine] | < 100 | 100 to 1000 | 100 to 1000
9 | Cc1nc[nH]c1CN1CCC(c2ccc3[nH]c(-c4ccnc5[nH]ncc45)c(C(C)C)c3c2)CC1 [Example 864, 4-(3-isopropyl-5-(1-((4-methyl-1H-imidazol-5-yl)methyl)piperidin-4-yl)-1H-indol-2-yl)-1H-pyrazolo[3,4-b]pyridine] | < 100 | < 100 | 100 to 1000
10 | Cc1cc(-c2[nH]c3ccc(C4CCN(CC#N)CC4)cc3c2C(C)C)cn2nnnc12 [Example 961, 2-(4-(3-isopropyl-2-(8-methyltetrazolo[1,5-a]pyridin-6-yl)-1H-indol-5-yl)piperidin-1-yl)acetonitrile] | < 100 | < 100 | 100 to 1000
11 | Cc1cc(-c2[nH]c3ccc(C4CCNCC4)cc3c2C(C)C)c2[nH]c(C)cc2n1 [Example 40, 7-(3-isopropyl-5-(piperidin-4-yl)-1H-indol-2-yl)-2,5-dimethyl-1H-pyrrolo[3,2-b]pyridine] | 1000 to 50000 | 1000 to 50000 | 100 to 1000
12 | CC(C)c1c(-c2cnc3c(cnn3C)c2)[nH]c2ccc(C3CCN(CC(C)(C)O)CC3)cc12 [Example 764, 1-(4-(3-isopropyl-2-(1-methyl-1H-pyrazolo[3,4-b]pyridin-5-yl)-1H-indol-5-yl)piperidin-1-yl)-2-methylpropan-2-ol] | < 100 | < 100 | 1000 to 50000
13 | CN(C)CC(=O)N1CCC(c2ccc3[nH]c(-c4cc(F)c5nccn5c4)c(CC(F)F)c3c2)CC1 [Example 546, 1-(4-(3-(2,2-difluoroethyl)-2-(8-fluoroimidazo[1,2-a]pyridin-6-yl)-1H-indol-5-yl)piperidin-1-yl)-2-(dimethylamino)ethan-1-one] | < 100 | 100 to 1000 | 100 to 1000
14 | CC(C)c1c(-c2cccn3ncnc23)[nH]c2ccc(C3CCN(C(=O)CN(C)C)CC3)cc12 [Example 514, 1-(4-(2-([1,2,4]triazolo[1,5-a]pyridin-8-yl)-3-isopropyl-1H-indol-5-yl)piperidin-1-yl)-2-(dimethylamino)ethan-1-one] | 100 to 1000 | 100 to 1000 | 1000 to 50000
